Assay results from ChEMBL document CHEMBL1201861, “Genomics of Drug Sensitity in Cancer screening data, Wellcome Trust Sanger Institute”.
Where a name gives a salt, the structure may show the parent alone.

How the values were obtained:
Experiment in all cases: cells
MFM-223 = type: functional, cell-based, Homo sapiens; details: Homo sapiens, MFM-223
Description: SANGER: Inhibition of human MFM-223 cell growth in a cell viability assay.

NCI-H69 = type: functional, cell-based, Homo sapiens; details: Homo sapiens, NCI-H69;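 note: growth inhibition of the cell line, read out with a cell viability assay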
Description: SANGER: Inhibition of human NCI-H69 cell growth in a cell viability assay.

ES3 = type: functional, cell-based, Homo sapiens; details: Homo sapiens, ES3;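 note: growth inhibition of ES3 cells, read out with a cell viability assay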
Description: SANGER: Inhibition of human ES3 cell growth in a cell viability assay.

A3-KAW = type: functional, cell-based, Homo sapiens; details: Homo sapiens, A3-KAW;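 note: growth inhibition of human A3-KAW cells, read out with a cell viability assay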
Description: SANGER: Inhibition of human A3-KAW cell growth in a cell viability assay.

J-RT3-T3-5 = type: functional, cell-based, Homo sapiens; details: Homo sapiens, J-RT3-T3-5;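 note: cell viability assay measuring growth inhibition of human J-RT3-T3-5 cells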
Description: SANGER: Inhibition of human J-RT3-T3-5 cell growth in a cell viability assay.

EC-GI-10 = type: functional, cell-based, Homo sapiens; details: Homo sapiens, EC-GI-10
Description: SANGER: Inhibition of human EC-GI-10 cell growth in a cell viability assay.

LB771-HNC = type: functional, cell-based, Homo sapiens; details: Homo sapiens, LB771-HNC;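 note: growth inhibition of LB771-HNC human cells, read out with a cell viability assay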
Description: SANGER: Inhibition of human LB771-HNC cell growth in a cell viability assay.

MV4-11 = type: functional, cell-based, Homo sapiens, MV-4-11; details: Homo sapiens, MV4-11;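 note: cell viability readout measuring growth inhibition of human MV-4-11 cells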
Description: SANGER: Inhibition of human MV-4-11 cell growth in a cell viability assay.

KNS-42 = type: functional, cell-based, Homo sapiens; details: Homo sapiens, KNS-42;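 note: growth inhibition of KNS-42 cells, read out with a cell viability assay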
Description: SANGER: Inhibition of human KNS-42 cell growth in a cell viability assay.

ES5 = type: functional, cell-based, Homo sapiens; details: Homo sapiens, ES5;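 note: growth inhibition of human ES5 cells, read out by a cell viability assay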
Description: SANGER: Inhibition of human ES5 cell growth in a cell viability assay.

ES6 = type: functional, cell-based, Homo sapiens; details: Homo sapiens, ES6;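 note: growth inhibition of human ES6 cells, read out with a cell viability assay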
Description: SANGER: Inhibition of human ES6 cell growth in a cell viability assay.

KNS-81-FD = type: functional, cell-based, Homo sapiens; details: Homo sapiens, KNS-81-FD;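 note: growth inhibition of KNS-81-FD cells, read out with a cell viability assay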
Description: SANGER: Inhibition of human KNS-81-FD cell growth in a cell viability assay.

SK-LMS-1 = type: functional, cell-based, Homo sapiens; details: Homo sapiens, SK-LMS-1;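 note: growth inhibition of human SK-LMS-1 cells, read out with a cell viability assay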
Description: SANGER: Inhibition of human SK-LMS-1 cell growth in a cell viability assay.

HEL = type: functional, cell-based, Homo sapiens; details: Homo sapiens, HEL;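 note: growth inhibition of HEL cells, read out with a cell viability assay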
Description: SANGER: Inhibition of human HEL cell growth in a cell viability assay.

EOL1 = type: functional, cell-based, Homo sapiens; details: Homo sapiens, EOL1;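 note: growth inhibition of EoL-1 cells, read out by a cell viability assay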
Description: SANGER: Inhibition of human EoL-1-cell cell growth in a cell viability assay.

NCI-H720 = type: functional, cell-based, Homo sapiens; details: Homo sapiens, NCI-H720;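 note: growth inhibition of human NCI-H720 cells determined by a cell viability assay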
Description: SANGER: Inhibition of human NCI-H720 cell growth in a cell viability assay.

SNU1 = type: functional, cell-based, Homo sapiens; details: Homo sapiens, SNU1;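 note: growth inhibition of human NCI-SNU-1 cells, measured with a cell viability assay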
Description: SANGER: Inhibition of human NCI-SNU-1 cell growth in a cell viability assay.

NCI-H226 = type: functional, cell-based, Homo sapiens; details: Homo sapiens, NCI-H226;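 note: cell viability read-out used to gauge growth inhibition of the cells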
Description: SANGER: Inhibition of human NCI-H226 cell growth in a cell viability assay.

TE-11 = type: functional, cell-based, Homo sapiens; details: Homo sapiens, TE-11;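 note: growth inhibition of human TE-11 cells, read out by a cell viability assay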
Description: SANGER: Inhibition of human TE-11 cell growth in a cell viability assay.

TE-10 = type: functional, cell-based, Homo sapiens; details: Homo sapiens, TE-10;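 note: growth inhibition of TE-10 cells, measured by a cell viability assay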
Description: SANGER: Inhibition of human TE-10 cell growth in a cell viability assay.

TK-10 = type: functional, cell-based, Homo sapiens; details: Homo sapiens, TK-10;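 note: growth inhibition of TK-10 cells, read out in a cell viability assay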
Description: SANGER: Inhibition of human TK10 cell growth in a cell viability assay.

CTV-1 = type: functional, cell-based, Homo sapiens; details: Homo sapiens, CTV-1;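 note: growth inhibition of the cell line, read out with a cell viability assay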
Description: SANGER: Inhibition of human CTV-1 cell growth in a cell viability assay.

HD-MY-Z = type: functional, cell-based, Homo sapiens; details: Homo sapiens, HD-MY-Z;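 note: growth inhibition of HD-MY-Z cells, read out with a cell viability assay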
Description: SANGER: Inhibition of human HD-MY-Z cell growth in a cell viability assay.

KY821 = type: functional, cell-based, Homo sapiens; details: Homo sapiens, KY821;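 note: growth inhibition of human KY821 cells, read out by a cell viability assay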
Description: SANGER: Inhibition of human KY821 cell growth in a cell viability assay.

LU-139 = type: functional, cell-based, Homo sapiens; details: Homo sapiens, LU-139
Description: SANGER: Inhibition of human LU-139 cell growth in a cell viability assay.

LS-1034 = type: functional, cell-based, Homo sapiens; details: Homo sapiens, LS-1034
Description: SANGER: Inhibition of human LS-1034 cell growth in a cell viability assay.

EKVX = type: functional, cell-based, Homo sapiens; details: Homo sapiens, EKVX;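 note: growth inhibition of human EKVX cells, read out with a cell viability assay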
Description: SANGER: Inhibition of human EKVX cell growth in a cell viability assay.

MOLT-16 = type: functional, cell-based, Homo sapiens; details: Homo sapiens, MOLT-16;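 note: growth inhibition of human MOLT-16 cells, read out with a cell viability assay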
Description: SANGER: Inhibition of human MOLT-16 cell growth in a cell viability assay.

LB373-MEL-D = type: functional, cell-based, Homo sapiens; details: Homo sapiens, LB373-MEL-D;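 note: growth inhibition of the cell line, read out in a cell viability assay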
Description: SANGER: Inhibition of human LB373-MEL-D cell growth in a cell viability assay.

KS-1 = type: functional, cell-based, Homo sapiens; details: Homo sapiens, KS-1;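 note: growth inhibition of KS-1 cells, read out with a cell viability assay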
Description: SANGER: Inhibition of human KS-1 cell growth in a cell viability assay.

ATN-1 = type: functional, cell-based, Homo sapiens; details: Homo sapiens, ATN-1;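 note: growth inhibition of human ATN-1 cells, read out with a cell viability assay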
Description: SANGER: Inhibition of human ATN-1 cell growth in a cell viability assay.

DSH1 = type: functional, cell-based, Homo sapiens; details: Homo sapiens, DSH1;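 note: growth inhibition of human DSH1 cells, measured with a cell viability readout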
Description: SANGER: Inhibition of human DSH1 cell growth in a cell viability assay.

NOS-1 = type: functional, cell-based, Homo sapiens; details: Homo sapiens, NOS-1;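 note: growth inhibition of the human NOS-1 cell line, read out with a cell viability assay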
Description: SANGER: Inhibition of human NOS-1 cell growth in a cell viability assay.

SJSA-1 = type: functional, cell-based, Homo sapiens; details: Homo sapiens, SJSA-1;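 note: growth inhibition of human SJSA-1 cells, read out through a cell viability measurement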
Description: SANGER: Inhibition of human SJSA-1 cell growth in a cell viability assay.

SW684 = type: functional, cell-based, Homo sapiens; details: Homo sapiens, SW684;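 note: growth inhibition of human SW684 cells, measured by a cell viability assay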
Description: SANGER: Inhibition of human SW684 cell growth in a cell viability assay.

KLE = type: functional, cell-based, Homo sapiens; details: Homo sapiens, KLE;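 note: growth inhibition of human KLE cells, read out with a cell viability assay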
Description: SANGER: Inhibition of human KLE cell growth in a cell viability assay.

HC-1 = type: functional, cell-based, Homo sapiens; details: Homo sapiens, HC-1;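 note: growth inhibition of HC-1 cells measured by a cell viability assay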
Description: SANGER: Inhibition of human HC-1 cell growth in a cell viability assay.

ES4 = type: functional, cell-based, Homo sapiens; details: Homo sapiens, ES4;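 note: growth inhibition of human ES4 cells, read out by a cell viability assay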
Description: SANGER: Inhibition of human ES4 cell growth in a cell viability assay.

LS-411N = type: functional, cell-based, Homo sapiens; details: Homo sapiens, LS-411N
COLO-684 = type: functional, cell-based, Homo sapiens; details: Homo sapiens, COLO-684
Description: SANGER: Inhibition of human COLO-684 cell growth in a cell viability assay.

D283 Med = type: functional, cell-based, Homo sapiens; details: Homo sapiens, D283 Med
Description: SANGER: Inhibition of human D-283MED cell growth in a cell viability assay.

NCI-H1838 = type: functional, cell-based, Homo sapiens; details: Homo sapiens, NCI-H1838;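 note: growth inhibition of NCI-H1838 cells, determined with a cell viability readout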
Description: SANGER: Inhibition of human NCI-H1838 cell growth in a cell viability assay.

SK-NEP-1 = type: functional, cell-based, Homo sapiens; details: Homo sapiens, SK-NEP-1;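 note: growth inhibition of human SK-NEP-1 cells, read out by a cell viability assay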
Description: SANGER: Inhibition of human SK-NEP-1 cell growth in a cell viability assay.

KM12 = type: functional, cell-based, Homo sapiens; details: Homo sapiens, KM12;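 note: KM12 cell growth inhibition, read out with a cell viability assay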
Description: SANGER: Inhibition of human KM12 cell growth in a cell viability assay.

NTERA-2-cl-D1 = type: functional, cell-based, Homo sapiens; details: Homo sapiens, NTERA-2-cl-D1;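 note: inhibition of cell growth, measured with a cell viability assay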
Description: SANGER: Inhibition of human NTERA-S-cl-D1 cell growth in a cell viability assay.

COLO-800 = type: functional, cell-based, Homo sapiens; details: Homo sapiens, COLO-800;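 note: growth inhibition of COLO-800 cells, read out with a cell viability assay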
Description: SANGER: Inhibition of human COLO-800 cell growth in a cell viability assay.

CAS-1 = type: functional, cell-based, Homo sapiens; details: Homo sapiens, CAS-1;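 note: growth inhibition of CAS-1 cells, measured with a cell viability assay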
Description: SANGER: Inhibition of human CAS-1 cell growth in a cell viability assay.

HCC2218 = type: functional, cell-based, Homo sapiens; details: Homo sapiens, HCC2218;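 note: cell viability assay read-out, with IC50 given as the concentration that inhibits growth of the cell line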
Description: SANGER: Inhibition of human HCC2218 cell growth in a cell viability assay.

HAL-01 = type: functional, cell-based, Homo sapiens; details: Homo sapiens, HAL-01;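 note: growth inhibition of human HAL-01 cells, read out with a cell viability assay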
Description: SANGER: Inhibition of human HAL-01 cell growth in a cell viability assay.

Cc1cn(-c2cc(NC(=O)c3ccc(C)c(Nc4nccc(-c5cccnc5)n4)c3)cc(C(F)(F)F)c2)cn1 [NILOTINIB]
IC50 (MFM-223): > 2 µM
IC50 (NCI-H69): > 2 µM
IC50 (ES3): > 2000 nM
IC50 (A3-KAW): > 2000 nM
IC50 (J-RT3-T3-5): > 2000 nM
IC50 (EC-GI-10): > 2 µM
IC50 (LB771-HNC): > 2000 nM
IC50 (MV4-11): > 2000 nM
IC50 (KNS-42): > 2000 nM
IC50 (ES5): > 2000 nM
IC50 (ES6): > 2000 nM
IC50 (KNS-81-FD): > 2000 nM
IC50 (SK-LMS-1): > 2000 nM
IC50 (HEL): > 2000 nM
IC50 (EOL1): < 7.81 nM
IC50 (NCI-H720): > 2 µM
IC50 (SNU1): > 2000 nM
IC50 (NCI-H226): > 2000 nM
IC50 (TE-11): > 2000 nM
IC50 (TE-10): > 2000 nM
IC50 (TK-10): > 2000 nM
IC50 (CTV-1): > 2000 nM
IC50 (HD-MY-Z): > 2 µM
IC50 (KY821): > 2 µM
IC50 (LU-139): > 2 µM
IC50 (LS-1034): > 2000 nM
IC50 (EKVX): > 2000 nM
IC50 (MOLT-16): > 2000 nM
IC50 (LB373-MEL-D): > 2000 nM
IC50 (KS-1): > 2000 nM
IC50 (ATN-1): > 2000 nM
IC50 (DSH1): > 2 µM
IC50 (NOS-1): > 2000 nM
IC50 (SJSA-1): > 2000 nM
IC50 (SW684): > 2 µM
IC50 (KLE): > 2000 nM
IC50 (HC-1): > 2000 nM
IC50 (ES4): > 2000 nM
IC50 (LS-411N): > 2000 nM
IC50 (COLO-684): > 2000 nM
IC50 (D283 Med): > 2000 nM
IC50 (NCI-H1838): > 2 µM
IC50 (SK-NEP-1): > 2000 nM
IC50 (KM12): > 2000 nM
IC50 (NTERA-2-cl-D1): > 2000 nM
IC50 (COLO-800): > 2 µM
IC50 (CAS-1): > 2000 nM
IC50 (HCC2218): > 2000 nM
IC50 (HAL-01): > 2000 nM

COC1=CC(c2cc3ccccc3[nH]2)=N/C1=C\c1[nH]c(C)cc1C [OBATOCLAX MESYLATE]
IC50 (MFM-223): 3.37 µM
IC50 (NCI-H69): 4.7 µM
IC50 (ES3): 278 nM
IC50 (A3-KAW): 85.7 nM
IC50 (J-RT3-T3-5): 118 nM
IC50 (EC-GI-10): > 16 µM
IC50 (LB771-HNC): 103 nM
IC50 (MV4-11): 180 nM
IC50 (KNS-42): 400 nM
IC50 (ES5): 605 nM
IC50 (ES6): 144 nM
IC50 (KNS-81-FD): 367 nM
IC50 (SK-LMS-1): 314 nM
IC50 (HEL): 154 nM
IC50 (EOL1): 115 nM
IC50 (NCI-H720): > 16 µM
IC50 (SNU1): 121 nM
IC50 (NCI-H226): 66.3 nM
IC50 (TE-11): 302 nM
IC50 (TE-10): 95.8 nM
IC50 (TK-10): 177 nM
IC50 (CTV-1): 75.2 nM
IC50 (HD-MY-Z): 14.6 µM
IC50 (KY821): > 16 µM
IC50 (LU-139): 6.08 µM
IC50 (LS-1034): 658 nM
IC50 (EKVX): 1660 nM
IC50 (MOLT-16): 1730 nM
IC50 (LB373-MEL-D): 42.3 nM
IC50 (KS-1): 305 nM
IC50 (ATN-1): 167 nM
IC50 (DSH1): 4.47 µM
IC50 (NOS-1): 64.1 nM
IC50 (SJSA-1): 147 nM
IC50 (SW684): > 16 µM
IC50 (KLE): 1660 nM
IC50 (HC-1): 1930 nM
IC50 (ES4): 103 nM
IC50 (LS-411N): 143 nM
IC50 (COLO-684): 656 nM
IC50 (D283 Med): 1120 nM
IC50 (NCI-H1838): > 16 µM
IC50 (SK-NEP-1): 1820 nM
IC50 (KM12): 318 nM
IC50 (NTERA-2-cl-D1): 104 nM
IC50 (COLO-800): 5.19 µM
IC50 (CAS-1): 1090 nM
IC50 (HCC2218): 2410 nM
IC50 (HAL-01): < 62.5 nM
